Measured values from article PMC5515969, “Effects of 31 FDA approved small-molecule kinase inhibitors on isolated rat liver mitochondria” (Archives of Toxicology, 2016).

system: not given; assay: not given; set-up: method as in product labeling; settings: BBW: black box warning; W&P: Warnings and Precautions; ref product labeling; cited from earlier work

SMILES | Labeling for cardiotoxicity
Cc1nc(Nc2ncc(C(=O)Nc3c(C)cccc3Cl)s2)cc(N2CCN(CCO)CC2)n1 [dasatinib (free base)] | W&P: Cardiovascular events;QT Interval Prolongation
CCN(CC)CCNC(=O)c1c(C)[nH]c(/C=C2\C(=O)Nc3ccc(F)cc32)c1C [sunitinib malate] | W&P: Cardiovascular events;QT Interval Prolongation and Torsade de Pointes

same assay, conditions: ref product labeling; cited from earlier work

SMILES | Potential for cardiotoxicity (based on labeling)
COc1cc(Nc2c(C#N)cnc3cc(OCCCN4CCN(C)CC4)c(OC)cc23)c(Cl)cc1Cl [Bosutinib] | 0
Cc1nc(Nc2ncc(C(=O)Nc3c(C)cccc3Cl)s2)cc(N2CCN(CCO)CC2)n1 [dasatinib (free base)] | 1
CCN(CC)CCNC(=O)c1c(C)[nH]c(/C=C2\C(=O)Nc3ccc(F)cc32)c1C [sunitinib malate] | 1

system: not given; assay: not given; settings: read-out: Cmax at µM; therapeutic maximal blood concentration; ref product labeling; cited from earlier work

SMILES | Cmax [µM]
Cc1nc(Nc2ncc(C(=O)Nc3c(C)cccc3Cl)s2)cc(N2CCN(CCO)CC2)n1 [dasatinib (free base)] | 0.18
CCN(CC)CCNC(=O)c1c(C)[nH]c(/C=C2\C(=O)Nc3ccc(F)cc32)c1C [sunitinib malate] | 0.12

same assay, conditions: therapeutic maximal blood concentration; ref product labeling; cited from earlier work

SMILES | Cmax [ng/mL]
COc1cc(Nc2c(C#N)cnc3cc(OCCCN4CCN(C)CC4)c(OC)cc23)c(Cl)cc1Cl [Bosutinib] | 200
Cc1nc(Nc2ncc(C(=O)Nc3c(C)cccc3Cl)s2)cc(N2CCN(CCO)CC2)n1 [dasatinib (free base)] | 85.8
CCN(CC)CCNC(=O)c1c(C)[nH]c(/C=C2\C(=O)Nc3ccc(F)cc32)c1C [sunitinib malate] | 61.9

system: RCC I; assay: RCC I activity in submitochondrial particles; assay type: biochemical, rat; set-up: key to RCC I at 10XCmax / RCC I at 100XCmax / RCC I at 50XCmax / RCC I at 30XCmax / RCC I at 20XCmax: activity relative to DMSO-treated controls (control set as 1 = 100%); settings: 10XCmax; relative to DMSO treated samples
Procedure, shortened: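 Abs 340 nm (I/V) or 600 nm (II), 1-min reads × 6 min; 550 nm (III, IV), 10-s reads × 2 min. RCC I = rotenone-free minus rotenone rate. DMSO control = 1.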

SMILES | RCC I at 10XCmax
COc1cc(Nc2c(C#N)cnc3cc(OCCCN4CCN(C)CC4)c(OC)cc23)c(Cl)cc1Cl [Bosutinib] | 0
Cc1nc(Nc2ncc(C(=O)Nc3c(C)cccc3Cl)s2)cc(N2CCN(CCO)CC2)n1 [dasatinib (free base)] | 0
CCN(CC)CCNC(=O)c1c(C)[nH]c(/C=C2\C(=O)Nc3ccc(F)cc32)c1C [sunitinib malate] | 0

same assay, conditions: 100-fold Cmax; 15 min; DMSO-treated = 100

SMILES | RCC activity I
COc1cc(Nc2c(C#N)cnc3cc(OCCCN4CCN(C)CC4)c(OC)cc23)c(Cl)cc1Cl [Bosutinib] | 88.03 ± 3.01 % of control

same assay, conditions: 100XCmax; relative to DMSO treated samples

SMILES | RCC I at 100XCmax
COc1cc(Nc2c(C#N)cnc3cc(OCCCN4CCN(C)CC4)c(OC)cc23)c(Cl)cc1Cl [Bosutinib] | 88.03±3.01

system: isolated rat liver mitochondria; assay: Mitochondrial swelling (absorbance at 535 nm); assay type: biochemical; settings: 1XCmax; difference in signal between KI and DMSO treated samples at the end of experiments; as to Swelling 5XCmax: key: 0 indicates that the drug had no effects (negative)

SMILES | Swelling 1XCmax
COc1cc(Nc2c(C#N)cnc3cc(OCCCN4CCN(C)CC4)c(OC)cc23)c(Cl)cc1Cl [Bosutinib] | 0
Cc1nc(Nc2ncc(C(=O)Nc3c(C)cccc3Cl)s2)cc(N2CCN(CCO)CC2)n1 [dasatinib (free base)] | 0
CCN(CC)CCNC(=O)c1c(C)[nH]c(/C=C2\C(=O)Nc3ccc(F)cc32)c1C [sunitinib malate] | 0

same assay, conditions: 2.5XCmax; difference in signal between KI and DMSO treated samples at the end of experiments

SMILES | Swelling 2.5XCmax
COc1cc(Nc2c(C#N)cnc3cc(OCCCN4CCN(C)CC4)c(OC)cc23)c(Cl)cc1Cl [Bosutinib] | 0
Cc1nc(Nc2ncc(C(=O)Nc3c(C)cccc3Cl)s2)cc(N2CCN(CCO)CC2)n1 [dasatinib (free base)] | 0
CCN(CC)CCNC(=O)c1c(C)[nH]c(/C=C2\C(=O)Nc3ccc(F)cc32)c1C [sunitinib malate] | 0

same assay, conditions: 5XCmax; difference in signal between KI and DMSO treated samples at the end of experiments

SMILES | Swelling 5XCmax
COc1cc(Nc2c(C#N)cnc3cc(OCCCN4CCN(C)CC4)c(OC)cc23)c(Cl)cc1Cl [Bosutinib] | 0
Cc1nc(Nc2ncc(C(=O)Nc3c(C)cccc3Cl)s2)cc(N2CCN(CCO)CC2)n1 [dasatinib (free base)] | 0
CCN(CC)CCNC(=O)c1c(C)[nH]c(/C=C2\C(=O)Nc3ccc(F)cc32)c1C [sunitinib malate] | 0

same assay, conditions: 10XCmax; difference in signal between KI and DMSO treated samples at the end of experiments

SMILES | Swelling 10XCmax
COc1cc(Nc2c(C#N)cnc3cc(OCCCN4CCN(C)CC4)c(OC)cc23)c(Cl)cc1Cl [Bosutinib] | 0
Cc1nc(Nc2ncc(C(=O)Nc3c(C)cccc3Cl)s2)cc(N2CCN(CCO)CC2)n1 [dasatinib (free base)] | 0
CCN(CC)CCNC(=O)c1c(C)[nH]c(/C=C2\C(=O)Nc3ccc(F)cc32)c1C [sunitinib malate] | 0

same assay, conditions: 20XCmax; difference in signal between KI and DMSO treated samples at the end of experiments

SMILES | Swelling 20XCmax
COc1cc(Nc2c(C#N)cnc3cc(OCCCN4CCN(C)CC4)c(OC)cc23)c(Cl)cc1Cl [Bosutinib] | 0
Cc1nc(Nc2ncc(C(=O)Nc3c(C)cccc3Cl)s2)cc(N2CCN(CCO)CC2)n1 [dasatinib (free base)] | 0
CCN(CC)CCNC(=O)c1c(C)[nH]c(/C=C2\C(=O)Nc3ccc(F)cc32)c1C [sunitinib malate] | 0

same assay, conditions: 30XCmax; difference in signal between KI and DMSO treated samples at the end of experiments

SMILES | Swelling 30XCmax
COc1cc(Nc2c(C#N)cnc3cc(OCCCN4CCN(C)CC4)c(OC)cc23)c(Cl)cc1Cl [Bosutinib] | 0
Cc1nc(Nc2ncc(C(=O)Nc3c(C)cccc3Cl)s2)cc(N2CCN(CCO)CC2)n1 [dasatinib (free base)] | 0
CCN(CC)CCNC(=O)c1c(C)[nH]c(/C=C2\C(=O)Nc3ccc(F)cc32)c1C [sunitinib malate] | 0

same assay, conditions: 50XCmax; difference in signal between KI and DMSO treated samples at the end of experiments

SMILES | Swelling 50XCmax
COc1cc(Nc2c(C#N)cnc3cc(OCCCN4CCN(C)CC4)c(OC)cc23)c(Cl)cc1Cl [Bosutinib] | 0
Cc1nc(Nc2ncc(C(=O)Nc3c(C)cccc3Cl)s2)cc(N2CCN(CCO)CC2)n1 [dasatinib (free base)] | 0
CCN(CC)CCNC(=O)c1c(C)[nH]c(/C=C2\C(=O)Nc3ccc(F)cc32)c1C [sunitinib malate] | 0

same assay, conditions: 100XCmax; difference in signal between KI and DMSO treated samples at the end of experiments

SMILES | Swelling 100XCmax
COc1cc(Nc2c(C#N)cnc3cc(OCCCN4CCN(C)CC4)c(OC)cc23)c(Cl)cc1Cl [Bosutinib] | 0
Cc1nc(Nc2ncc(C(=O)Nc3c(C)cccc3Cl)s2)cc(N2CCN(CCO)CC2)n1 [dasatinib (free base)] | 0
CCN(CC)CCNC(=O)c1c(C)[nH]c(/C=C2\C(=O)Nc3ccc(F)cc32)c1C [sunitinib malate] | 0
